According to paper PMC10525312, “Identification of a Novel Bioactive Peptide Derived from Frozen Chicken Breast Hydrolysate and the Utilization of Hydrolysates as Biopreservatives” (Biology, 2023):

How the values were obtained:
[1] = DPPH antioxidant activity assay (DPPH antioxidant assay kit); type: biochemical; conditions: 25 °C for 30 min in the dark, absorbance 450 nm
Procedure: The antioxidant activity of the chicken hydrolysate and C25 was assessed utilizing a DPPH antioxidant assay kit (Dojindo Laboratories) as described in the instructions provided by the manufacturer and as elaborated by Maky and Zendo [14]. Briefly, 20 µL of the investigated samples was applied to a microtiter plate and 80 µL of assay buffer, 100 µL of ethanol and 100 µL of DPPH working solution were mixed with the samples. Then, the plate was incubated at 25 °C for 30 min in the dark. The absorbance was measured by using a Sunrise microplate absorbance reader (Tecan) at 450 nm.

[2] = test system: Pseudomonas putida ATCC 12633^T; assay: MIC, broth microdilution assay, Pseudomonas putida; type: cell-based; conditions: C25, Luria Bertani medium, OD 620 nm, twofold dilutions
Text: (§1) The following indicator bacteria were used to determine the minimum inhibitory concentrations (MICs) as described by Wiegand et al. and Maky and Zendo [14] by using a broth microdilution assay. Weizmannia (Bacillus) coagulans JCM 2257^T, Salmonella enterica serovar Typhimurium NBRC 13243^T, Listeria innocua ATCC 33090^T, Proteus vulgaris F24B [24] and Escherichia coli JM109 were cultivated in Tryptic Soy Broth (BD, Sparks, MD, USA) supplemented with 0.6% yeast extract. Enterococcus faecalis JCM 5803^T was cultivated in MRS medium (Oxoid, Basingstoke, UK), while Pseudomonas putida ATCC 12633^T was cultivated in Luria Bertani medium (BD). Briefly, the bacterial inhibition was assessed at an optical density at 620 nm using an Infinite F200 Pro microplate reader (Tecan, Männedorf, Switzerland) after the indicator strains were cultured with twofold serial dilutions of chicken hydrolysates and C25.

[3] = test system: Weizmannia coagulans JCM 2257^T; assay: MIC, broth microdilution assay, Weizmannia coagulans; type: cell-based, Weizmannia (Bacillus) coagulans; conditions: C25, Tryptic Soy Broth + 0.6% yeast extract, OD 620 nm, twofold dilutions
Text: as §1

[4] = test system: Enterococcus faecalis JCM 5803^T; assay: MIC, broth microdilution assay, Enterococcus faecalis; type: cell-based; conditions: C25, MRS medium, OD 620 nm, twofold dilutions
Text: as §1

[5] = test system: Salmonella enterica serovar Typhimurium NBRC 13245^T; assay: MIC, broth microdilution assay, Salmonella Typhimurium; type: cell-based; conditions: C25, Tryptic Soy Broth + 0.6% yeast extract, OD 620 nm, twofold dilutions
Text: as §1

[6] = test system: Listeria innocua ATCC 33090^T; assay: MIC, broth microdilution assay, Listeria innocua; type: cell-based; conditions: C25, Tryptic Soy Broth + 0.6% yeast extract, OD 620 nm, twofold dilutions
Text: as §1

[7] = commercial food antioxidants; cited from earlier work
Text: Free radicals can be produced as a result of lipid oxidation, causing major health issues and having a negative impact on food quality. One of the solutions to prevent lipid oxidation is the use of protein hydrolysates.

ACE = conditions: peptides after in vitro gastrointestinal digestion of chicken meat; read-out: ACE inhibitory activity IC50; cited from earlier work
Text: The ACE inhibitory activity of C25 was more po ...

With H-IHAEEILDIRGNPTVEVDLHTAKGH-OH [C25] the “Antioxidant activity (in words)” value [1] was “no activity was observed”, the “MIC (class symbol)” value [2] was “NA ^2 (NA ^2 > 24 μg/mL)” and the “MIC (class symbol)” value [3] was “NA ^2 (NA ^2 > 24 μg/mL)”. For the same molecule, the “MIC (class symbol)” value [4] was “NA ^2 (NA ^2 > 24 μg/mL)”, the “MIC (class symbol)” value [5] was “NA ^2 (NA ^2 > 24 μg/mL)” and the “MIC (class symbol)” value [6] was “NA ^2 (NA ^2 > 24 μg/mL)”.

In the case of `COc1ccc(O)c(C(C)(C)C)c1` [Butylated hydroxyanisole (BHA), Butylated hydroxyanisole], the “Antioxidant activity IC50” value [7] is listed as 112.05 µg/mL.

In the case of KPLL, the IC50 (ACE) is given as 12 µM.

For `Cc1cc(C(C)(C)C)c(O)c(C(C)(C)C)c1` [butylated hydroxytoluene (BHT), butylated hydroxytoluene], the “Antioxidant activity IC50” value [7] is listed as 202.35 µg/mL.

In the case of ELFTT, the IC50 (ACE) is given as 6.35 µM.
